Numbers after ± are expanded uncertainties.
How the values were obtained:
[1] = Boiling temperature at pressure P; details: 101.3 kPa; Liquid; Ebulliometric method (Recirculating still)
[2] = Liquid; for mass density: 298.15 K, 101.33 kPa, Vibrating tube method; for vapor or sublimation pressure: Ebulliometric method (Recirculating still)
[3] = refractive index (Na D-line) (dimensionless); details: 298.15 K; 101.33 kPa; Liquid; Standard Abbe refractometry

Structure (SMILES)	Boiling temperature at pressure P [1]	mass density [2]	vapor or sublimation pressure ([2]; 381.15 K)	vapor or sublimation pressure ([2]; 381.41 K)	vapor or sublimation pressure ([2]; 395.9 K)	vapor or sublimation pressure ([2]; 396.04 K)	vapor or sublimation pressure ([2]; 406.39 K)	vapor or sublimation pressure ([2]; 406.59 K)	refractive index [3]	vapor or sublimation pressure ([2]; 384.76 K)	vapor or sublimation pressure ([2]; 400.65 K)	vapor or sublimation pressure ([2]; 411.56 K)	vapor or sublimation pressure ([2]; 309.68 K)	vapor or sublimation pressure ([2]; 320.76 K)	vapor or sublimation pressure ([2]; 328.55 K)
COCC(C)OC(C)=O (stereo unspecified) [1-methoxy-2-propyl acetate]	145.57 ± 0.2 °C	961.52 ± 5 kg/m3	30 ± 1 kPa	30 ± 1 kPa	50 ± 1 kPa	50 ± 1 kPa	70 ± 1 kPa	70 ± 1 kPa	1.3986 ± 0.01	–	–	–	–	–	–
CN(C)C=O [dimethylformamide]	153.50 ± 0.2 °C	943.89 ± 5 kg/m3	–	–	–	–	–	–	1.4277 ± 0.01	30 ± 1 kPa	50 ± 1 kPa	70 ± 1 kPa	–	–	–
CO [methanol]	64.48 ± 0.2 °C	786.59 ± 5 kg/m3	–	–	–	–	–	–	1.3264 ± 0.01	–	–	–	30 ± 1 kPa	50 ± 1 kPa	70 ± 1 kPa

From the NIST ThermoML archive (doi:10.1021/acs.jced.6b01071)
